The nature of data set [1]: Liver microsomal metabolism stability test, human. It counts as in vitro ADME. Conditions: human liver microsomes, 60 min. How it is done:
(§1) The purpose of this experiment was to detect the stability of the example compounds in liver microsomes of rats, dogs and humans.
(§2) • Formulation of working solution of compounds: compound stock solution was added to phosphate buffer to a final concentration of 20 μM.
(§3) Dilution was performed with 100 mM phosphate buffer to a final concentration of 0.625 mg/mL.
(§4) NADPH (reduced nicotinamide adenine dinucleotide phosphate) and UDPGA (uridine diphosphate glucuronic acid) were weighed, 100 mM phosphate buffer was added, and the final concentration was 20 mM.
(§5) 1 mg of Alamethicin was weighed, and 200 μL of DMSO was added to formulate a 5 mg/mL solution. Then dilution was performed with phosphate buffer to a final concentration of 50 μg/mL.
(§6) Stop solution: the stop solution contains 100 ng/mL labetalol hydrochloride and 400 ng/mL tolbutamide and cold acetonitrile as internal standard.
(§7) 400 μL of formulated liver microsomes, 25 μL of compound working solution and 25 μL of Alamethicin were added in sequence to the 96-well plate, and pre-incubated at 37° C. for 10 min. Then 50 μL of formulated NADPH/UDPGA was added to start the reaction and the mixture was incubated at 37° C. The total volume of the reaction system was 500 μL. The final contents of each component are as follows:
(§8) • Instrument: Shimadzu LC-30 AD; • Chromatographic column: XBridge® C18 (50*4.6 mm, 5 μm particle size); • Mobile phase: A: 0.1% formic acid solution, B: methanol Wash gradient: 0.2-1.6 min 5% A to 95% A, 3.0-3.1 min 95% A to 5% A Run time: 4.0 min.
(§9) • Instrument: API5500 liquid chromatography mass spectrometer, AB Sciex; • Ion source: electrospray ionization source (ESI); • Drying gas: N2, temperature 500° C.; • Electrospray voltage: 5000 V; • Detection mode: positive ion detection; • Scanning mode: reaction monitoring (MRM) mode.
On the technique in general: Liver microsomes are a subcellular fraction often used to study metabolism.

Data set [2] is described as follows: Liver microsomal metabolism stability test, rat. It counts as in vitro ADME. Conditions: rat liver microsomes, 60 min. The protocol: as §1, §2, §3, §4, §5, §6, §7, §8, §9
The test system of data set [3] is spontaneously hypertensive rat (SHR) model. The data set can be described thus: Pharmacodynamic evaluation on blood pressure in spontaneously hypertensive rats. It counts as in vivo. Particulars: P.O, 30 mpk, 1-8 h after administration, P<0.05. The text has this: This experiment used a spontaneously hypertensive rat (SHR) model to evaluate the pharmacodynamic effect of the test compounds on the blood pressure and heart rate of the model.
Kent Scientific CODA non-invasive blood pressure system.
Spontaneously hypertensive rats (SHR) were provided by Beijing Vital River Laboratory Animal Technology Co., Ltd., male, 150-200 g, 13-15 weeks old, 50 rats.
After animals arrived at the experimental facility, the animals were adapted to the animal facility for 5-7 days. 4.2 After the adaptation period, the animals were adapted to the tail oversleeve restrain for 3 days, and the tail oversleeve restrain was performed twice a day. After the last restrain adaptation, the basal blood pressure was measured, and the animals were randomly divided into groups according to the basal blood pressure. There was no significant difference between the average systolic blood pressure of animals in each group, and the number of animals in each group met the requirements of statistical testing and pharmacodynamic guidelines. 4.3 On the second day after grouping, the animals were administered according to experimental design and grouping (P.O, 5 mL/kg), and the systolic blood pressure (SBP), diastolic blood pressure (DBP), mean arterial pressure (MAP) and heart rate (HR) of the animals were measured before administration and at 1, 2, 4, 6, 8 and 24 h after administration using tail oversleeve method.
Statistical differences between groups were analyzed by Two-way ANOVA test. Among them, P<0.05 indicated a significant difference, and P<0.01 indicated an extremely significant difference.

Data set [4] is described as follows: Liver microsomal metabolism stability test, dog. It counts as in vitro ADME. Particulars: dog liver microsomes, 60 min. The protocol: as §1, §2, §3, §4, §5, §6, §7, §8, §9

These results are taken from patent publication US20240368123A1, “AROMATIC RING-CONTAINING BIOLOGICAL ANTAGONIST, AND PREPARATION METHOD THEREFOR AND USE THEREOF” (SHANGHAI HANSOH BIOMEDICAL CO., LTD., priority 2021, published 2024).

Molecules are shown by their SMILES.

Regarding `[2H]C([2H])(c1ccc(-c2ccccc2S(=O)(=O)Nc2noc(C)c2Cl)c(COCC)c1)N1C(=O)C2(CCCC2)N=C1CCCC` [Example 44, 4′-((2-butyl-4-oxo-1,3-diazaspiro[4.4]non-1-en-3-yl)methyl-d2)-N-(4-chloro-5-methylisoxazol-3-yl)-2′-(ethoxymethyl)-[1,1′-biphenyl]-2-sulfonamide], the Remaining rate was 33.0% in data set [1], 29.4% in data set [2] and 24.6% in data set [4]. The “blood pressure (systolic blood pressure, diastolic blood pressure, mean arterial pressure) compared with the vehicle group” value in data set [3] is recorded as “significantly reduced blood pressure”.

Consider `CCCCC1=NC2(CCCC2)C(=O)N1Cc1ccc(-c2ccccc2S(=O)(=O)Nc2noc(C)c2Cl)c(COCC)c1` [Example 45, 2-[4-[(2-butyl-4-oxo-1,3-diazaspiro[4.4]non-1-en-3-yl)methyl]-2-(ethoxymethyl)phenyl]-N-(4-chloro-5-methyl-isoxazol-3-yl)benzsulfamide], for which the Remaining rate worked out at 32.0% in data set [1], 23.3% in data set [2] and 23.6% in data set [4]. The “blood pressure (systolic blood pressure, diastolic blood pressure, mean arterial pressure) compared with the vehicle group” value in data set [3] is “significantly reduced blood pressure”.
